Values of other authors as cited in patent US11311529B2, “Topical formulations of 5-α-reductase inhibitors and uses thereof” (Varsona Therapeutics, Inc., priority 2018, dated 2022).

How the values were obtained:
DHT = conditions: 5 mg daily dose, oral, people suffering from BPH
men = conditions: oral, over a period of 12 to 24 weeks, compared with oral finasteride

SMILES: CC(C)(C)NC(=O)[C@H]1CC[C@H]2[C@@H]3CC[C@H]4NC(=O)C=C[C@]4(C)[C@H]3CC[C@]12C [oral finasteride, finasteride]
- DHT blocked (DHT): 70.8+/−18.3%

SMILES: C[C@]12C=CC(=O)N[C@@H]1CC[C@@H]1[C@@H]2CC[C@]2(C)[C@@H](C(=O)Nc3cc(C(F)(F)F)ccc3C(F)(F)F)CC[C@@H]12 [oral dutasteride, (5α,17β)-N-[2,5 bis(trifluoromethyl)phenyl]-3-oxo-4-azaandrost-1-ene-17-carboxamide]
- hair count results (men): better hair count results than oral finasteride
- DHT blocked (DHT): 98.4%+/−1.2
